pIC50, pKi: −log10 of the molar value.
Legend:
Interstitial collagenase = target: T1, Interstitial collagenase (Homo sapiens, UniProt P03956); experiment: Inhibition of MMP-1 (Matrix metalloprotease-1)
T1 sequence (P03956 whole entry): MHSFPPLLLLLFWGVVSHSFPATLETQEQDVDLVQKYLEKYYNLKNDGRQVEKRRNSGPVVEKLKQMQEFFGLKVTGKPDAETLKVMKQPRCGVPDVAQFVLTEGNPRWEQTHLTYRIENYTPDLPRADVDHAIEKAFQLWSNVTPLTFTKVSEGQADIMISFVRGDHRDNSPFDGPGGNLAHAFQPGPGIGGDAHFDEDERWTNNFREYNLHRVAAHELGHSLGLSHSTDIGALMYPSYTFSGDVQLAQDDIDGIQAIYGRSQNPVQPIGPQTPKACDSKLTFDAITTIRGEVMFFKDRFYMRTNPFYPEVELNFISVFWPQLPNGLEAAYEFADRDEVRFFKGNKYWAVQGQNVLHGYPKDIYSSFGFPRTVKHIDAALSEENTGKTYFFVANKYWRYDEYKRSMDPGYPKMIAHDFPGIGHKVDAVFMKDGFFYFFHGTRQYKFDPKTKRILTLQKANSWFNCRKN

Homo sapiens = species: Homo sapiens; experiment: In vitro inhibition for TNF-alpha production from LPS-stimulated human whole blood; format: functional
Stromelysin-1 = Stromelysin-1 (Homo sapiens, UniProt P08254); experiment: Inhibition of MMP-3 (Matrix metalloprotease-3)
[1] = target: Matrix metalloproteinase-9 (Homo sapiens, UniProt P14780); experiment: Inhibition of MMP-9 (Matrix metalloprotease-9)
Chain of Matrix metalloproteinase-9 (P14780 whole entry): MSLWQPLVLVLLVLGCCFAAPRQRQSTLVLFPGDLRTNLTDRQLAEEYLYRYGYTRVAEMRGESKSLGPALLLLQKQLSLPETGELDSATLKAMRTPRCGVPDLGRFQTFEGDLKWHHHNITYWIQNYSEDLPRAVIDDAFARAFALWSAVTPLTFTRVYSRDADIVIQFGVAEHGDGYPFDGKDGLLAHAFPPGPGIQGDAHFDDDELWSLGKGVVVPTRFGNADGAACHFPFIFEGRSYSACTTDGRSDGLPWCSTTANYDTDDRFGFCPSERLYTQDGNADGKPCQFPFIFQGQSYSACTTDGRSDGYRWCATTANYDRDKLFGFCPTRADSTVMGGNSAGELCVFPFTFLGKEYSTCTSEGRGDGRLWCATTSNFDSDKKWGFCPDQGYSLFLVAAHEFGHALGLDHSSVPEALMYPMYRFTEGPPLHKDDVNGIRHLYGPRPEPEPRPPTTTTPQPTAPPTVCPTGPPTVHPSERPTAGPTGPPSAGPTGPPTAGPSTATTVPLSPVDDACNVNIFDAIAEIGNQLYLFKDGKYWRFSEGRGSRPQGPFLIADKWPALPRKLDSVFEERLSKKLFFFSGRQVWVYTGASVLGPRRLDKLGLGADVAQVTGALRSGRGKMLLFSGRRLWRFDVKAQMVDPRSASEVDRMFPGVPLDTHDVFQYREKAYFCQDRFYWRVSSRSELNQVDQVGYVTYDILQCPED

Chain of Stromelysin-1 (P08254 whole entry): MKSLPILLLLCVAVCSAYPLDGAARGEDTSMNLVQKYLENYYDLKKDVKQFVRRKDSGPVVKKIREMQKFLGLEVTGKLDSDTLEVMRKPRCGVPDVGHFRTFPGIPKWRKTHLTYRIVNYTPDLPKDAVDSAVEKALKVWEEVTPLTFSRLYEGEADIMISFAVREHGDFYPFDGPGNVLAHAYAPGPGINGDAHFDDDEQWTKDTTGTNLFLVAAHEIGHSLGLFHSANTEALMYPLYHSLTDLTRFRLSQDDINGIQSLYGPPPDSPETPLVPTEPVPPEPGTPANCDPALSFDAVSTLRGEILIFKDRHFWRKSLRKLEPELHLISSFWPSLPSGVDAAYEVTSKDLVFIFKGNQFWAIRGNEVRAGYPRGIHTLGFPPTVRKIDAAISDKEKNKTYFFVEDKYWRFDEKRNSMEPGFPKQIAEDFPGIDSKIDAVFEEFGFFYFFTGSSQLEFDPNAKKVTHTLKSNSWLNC

pKi (Interstitial collagenase)	pIC50 (Homo sapiens)	pKi (Stromelysin-1)	pKi [1]	SMILES
9.06	5.74	8.71	9.89	CNC(=O)[C@@H](Cc1ccc(OC)cc1)NC(=O)[C@H](CC(C)C)[C@H](C)C(=O)NO
8.92	5.92	7.49	8.74	CNC(=O)[C@@H]1Cc2ccc(cc2)OCCC[C@H](C(=O)NO)[C@@H](CC(C)C)C(=O)N1
8.55	5.19	7.62	8.59	CNC(=O)[C@@H]1CCCCNC(=O)CO[C@H](C(=O)NO)[C@@H](CC(C)C)C(=O)N1
